Source: publication PMC10895676, “Antiviral Activity of Lipophilic Nucleoside Tetraphosphate Compounds” (Journal of Medicinal Chemistry, 2024)
“Also recorded” adds a separate entry of the source.

Target: T1, human DNA polymerase α (Homo sapiens, UniProt P09884)
T1 construct: purchased Chimerx
T1 sequence (P09884 1-1462): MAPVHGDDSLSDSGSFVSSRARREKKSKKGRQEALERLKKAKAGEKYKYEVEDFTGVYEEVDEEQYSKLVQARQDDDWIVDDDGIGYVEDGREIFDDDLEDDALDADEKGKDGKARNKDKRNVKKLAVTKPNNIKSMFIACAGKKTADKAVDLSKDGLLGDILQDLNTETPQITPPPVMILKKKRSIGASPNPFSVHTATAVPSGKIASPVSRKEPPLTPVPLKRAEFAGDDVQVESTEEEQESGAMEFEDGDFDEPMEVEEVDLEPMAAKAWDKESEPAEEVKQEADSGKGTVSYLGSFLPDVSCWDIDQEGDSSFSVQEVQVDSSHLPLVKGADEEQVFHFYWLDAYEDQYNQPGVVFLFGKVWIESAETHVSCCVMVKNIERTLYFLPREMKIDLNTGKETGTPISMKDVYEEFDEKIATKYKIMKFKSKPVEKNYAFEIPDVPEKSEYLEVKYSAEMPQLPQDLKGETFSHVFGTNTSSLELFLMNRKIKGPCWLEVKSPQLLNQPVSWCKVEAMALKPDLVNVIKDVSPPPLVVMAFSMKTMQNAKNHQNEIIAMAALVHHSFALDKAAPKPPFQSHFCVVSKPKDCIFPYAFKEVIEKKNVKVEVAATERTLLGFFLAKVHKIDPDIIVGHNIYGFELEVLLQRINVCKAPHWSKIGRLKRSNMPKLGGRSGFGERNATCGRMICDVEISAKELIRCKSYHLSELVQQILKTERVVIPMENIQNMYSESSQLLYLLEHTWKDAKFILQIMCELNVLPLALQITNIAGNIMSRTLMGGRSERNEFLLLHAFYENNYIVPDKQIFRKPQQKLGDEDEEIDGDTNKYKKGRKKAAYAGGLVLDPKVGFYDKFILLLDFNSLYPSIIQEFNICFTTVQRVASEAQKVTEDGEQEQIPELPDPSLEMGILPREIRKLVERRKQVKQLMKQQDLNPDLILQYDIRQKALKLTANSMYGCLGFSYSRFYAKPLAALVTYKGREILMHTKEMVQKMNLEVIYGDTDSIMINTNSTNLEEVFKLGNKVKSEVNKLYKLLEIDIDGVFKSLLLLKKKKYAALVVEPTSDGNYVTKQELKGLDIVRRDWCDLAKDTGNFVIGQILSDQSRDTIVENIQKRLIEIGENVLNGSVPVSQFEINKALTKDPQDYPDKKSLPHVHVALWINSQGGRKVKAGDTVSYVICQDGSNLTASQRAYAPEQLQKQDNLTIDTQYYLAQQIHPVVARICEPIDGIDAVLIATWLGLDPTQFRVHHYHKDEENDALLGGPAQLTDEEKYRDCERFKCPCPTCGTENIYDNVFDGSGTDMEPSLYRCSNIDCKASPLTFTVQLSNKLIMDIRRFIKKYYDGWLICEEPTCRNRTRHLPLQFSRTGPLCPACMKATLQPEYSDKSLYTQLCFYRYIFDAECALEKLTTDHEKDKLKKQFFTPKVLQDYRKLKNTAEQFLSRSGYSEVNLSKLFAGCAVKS
Experiment: Primer extension assay using human DNA polymerase α
Assay type: biochemical
Details: 60 min, 2 U, 37 °C
Description: Encouraged by the previously obtained results that γ-phosphate-modified-d4TDPs 3, γ-monoalkylated d4TTP derivatives as well as d4TDP were accepted as substrates by HIV-RT,[49],[50],[55],[59]−[61] δ-dialkylated d4T tetraphosphate analogues 4,5, δ-monoalkylated d4T tetraphosphate analogues 20 and 24 and d4T4P were investigated in primer extension assays in the presence of HIV-RT or the three different human DNA polymerases α, β and γ. D4TTP (for the compounds 4–9) and the natural thymidine triphosphate (TTP) were used as reference compounds.
Figure 6 Primer extension assay using HIV-RT (A), human polymerases α (B), β (C), and γ (D). (Figure 6A). Primer extension assay using HIV-RT (30 min, 6U). Lane 1: (+) dATP, dCTP, dGTP, and TTP with HIV-RT. Lane 2: (−) dATP, dCTP, dGTP, and TTP without HIV-RT. Lane 3: TTP. […] Lane 5: δ-(C4; C18)-d4T4P 4d. […] Lane 7: δ-(C18)-d4T4P 20. Lane 8: δ-C-(C18)-d4T4P 24. Lane 9: d4T4P. Lane 10: d4TTP. Lane 11: d4TDP. HIV-RT assay reaction conditions: 50 mM Tris–HCl (pH 8.6), 10 mM MgCl2, 40 mM KCl, 250 μM dNTPs, HIV-RT (6 U), 0.20 μM DNA hybrid, primer-template-hybrid 0.32 mM in a reaction volume of 10 μL, incubated at 37 °C for 0.5 h, 80 °C for 7 min. Primer extension assays: 50 mA, 45 w for 4 h. (Figure 6B). For human DNA polymerase α assay (60 min, 2 U): Lane 1: (+) dATP, dCTP, dGTP, and TTP with human polymerase α. Lane 2: (−) dATP, dCTP, dGTP, and TTP without human polymerase α. Lane 3: TTP. […] Lane 5: δ-(C4; C18)-d4T4P 4d. […] Lane 7: δ-(C18)-d4T4P 20. Lane 8: δ-C-(C18)-d4T4P 24. Lane 9: d4T4P. Lane 10: d4TTP. Human DNA polymerase α assay conditions: 60 mM Tris–HCl (pH 8), 5 mM Mg(OAc)2, 100 mM KCl, 1.0 mM dithiothreitol, 0.1 mM spermine, 0.01% (w/v) bovine serum albumin, 250 μM dNTPs, 2 U human polymerase α, 0.20 μM DNA hybrid, and primer-template-hybrid 0.32 mM in a reaction volume of 10 μL, incubated at 37 °C for 1 h, 80 °C for 7 min. Primer extension assays: 50 mA, 45 w for 3 h. (Figure 6C). For human DNA polymerase β assay (60 min, 2 U): Lane 1: (+) dATP, dCTP, dGTP, and TTP with human polymerase β. […]

Row | SMILES | substrate for human DNA polymerase α (primer extension)
1 | CCCCCCCCCCCCCCCCCCOP(=O)(O)OP(=O)(O)OP(=O)(O)OP(=O)(O)OC[C@@H]1C=C[C@H](n2cc(C)c(=O)[nH]c2=O)O1 [compound 20, δ-(Alkyl-C18)-d4T4P] | nonsubstrates
2 | CCCCCCCCCCCCCCCCCCP(=O)(O)OP(=O)(O)OP(=O)(O)OP(=O)(O)OC[C@@H]1C=C[C@H](n2cc(C)c(=O)[nH]c2=O)O1 [compound 24, δ-C-(Alkyl-C18)-d4T4P] | nonsubstrates
3 | Cc1cn([C@H]2C=C[C@@H](COP(=O)(O)OP(=O)(O)OP(=O)(O)OP(=O)(O)O)O2)c(=O)[nH]c1=O [d4T4P, 2′,3′-didehydro-2′,3′-dideoxythymidine-5′-tetraphosphate] | nonsubstrates; also recorded: not a substrate
